Reference: patent US20260070921A1, “COMPOUND, ENDOPLASMIC RETICULUM STRESS INHIBITOR, PHARMACEUTICAL PRODUCT, OPHTHALMIC AGENT, EYE DROPS, COMPOSITION, AND METHOD FOR PRODUCING COMPOUND” (KYOTO UNIVERSITY, priority 2022, published 2026)

How the values were obtained:
HEK293 cells [1] = test: Tunicamycin assay (cell viability under ER stress, WST-8); assay type: cell-based; set-up: key to Efficacy 5 μM (ER stress inhibition activity) / Efficacy 25 μM (ER stress inhibition activity) / Efficacy 100 μM (ER stress inhibition activity): “−” indicates no activity; “+” indicates weak activity; “++” indicates strong activity; conditions: for Efficacy 5 μM (ER stress inhibition activity): compound 5 μM 12 to 18 h; for Efficacy 5 μM (ER stress inhibition activity) / Efficacy 25 μM (ER stress inhibition activity) / Efficacy 100 μM (ER stress inhibition activity): then tunicamycin 5 μg/mL 48 h; for Efficacy 25 μM (ER stress inhibition activity): compound 25 μM 12 to 18 h; for Efficacy 100 μM (ER stress inhibition activity): compound 100 μM 12 to 18 h
Protocol: HEK293 cells were seeded in 96-well plates ([…]) and incubated at 37° C. for 2 hours. The medium was then replaced with 100 μL of DMEM ([…]) containing self-assembling chemicals (20 or more compounds, including compounds of the present disclosure) and 1% DMSO. After incubation with any one of compounds 1 to 6 at a given concentration for 12 to 18 hours, HEK293 cells were treated with tunicamycin (5 μg/mL) or thapsigargin (10 μM) for 48 hours, and cell viability was measured using a WST-8 cell counting kit (Dojindo Laboratories).
Produced compounds XD8 to XD28 were subjected to a tunicamycin assay in the same manner as in Examples 1 to 9. Specifically, HEK293 cells were first seeded in a 96-well plate (1×10^4 cells/well) and incubated at 37° C. for 2 hours. The medium was then replaced with 100 μL of DMEM (10% FBS) containing a self-assembling chemical (each of compounds XD8 to XD28) and […]. After incubation with any of compounds XD8 to XD28 at a concentration of 5.0 μM, 25 μM, or 100 μM for 12 to 18 hours, HEK293 cells were treated with tunicamycin (5 μg/mL) for 48 hours, followed by measuring cell viability by using a WST-8 cell counting kit (Dojindo Laboratories).

[2] = Dynamic light scattering (DLS) of self-assemblies; assay type: physicochemical
Text: In the graphs on the left, the vertical axis “Z-ave. (nm)” represents the average particle size. In the graphs on the right, the vertical axis “Derived Count Rate (kcps)” represents the derived count rate. The horizontal axis represents the molar concentration (PM) of PBS (pH of 7.4) and DMEM (10% FBS). Error bars represent s.d. (n=3).
“Z-ave.” represents the average size of particles. Error bars represent s.d. (n=3).
“Z-average” represents the average size of particles. Error bars represent s.d. (n=3).

HEK293 cells [3] = test: Cell viability assay without ER stress inducer (cytotoxicity, WST-8); assay type: cell-based; conditions: 64 h
Protocol: HEK293 cells were treated with compound 1, compound 4, compound 5, or compound 6 (25 μM or 100 μM, respectively) for 64 hours. The vertical axis represents relative cell viability (unit: %), and the horizontal axis represents concentration (unit: μM). Cell viability was measured using a WST-8 cell counting kit. Error bars represent s.d. (n=3).
FIG. 31 is a graph showing the results of a cell viability assay using bafilomycin A1. HEK293 cells were treated with bafilomycin A1 in DMEM (10% FBS) for 48 hours. The vertical axis represents relative cell viability (unit: %), and the horizontal axis represents the concentration of bafilomycin A1 (unit: μM). Cell viability was measured using a WST-8 cell counting kit. Error bars represent s.d. (n=3).
FIG. 32 is a graph showing the results of a cell viability assay using MG132. HEK293 cells were treated with MG132 in DMEM (10% FBS) for 48 hours. The vertical axis represents relative cell viability (unit: t), and the horizontal axis represents the concentration of MG132 (unit: μM). Cell viability was measured using a WST-8 cell counting kit. Error bars represent s.d. (n=3).
The term “Efficacy” denotes ER (endoplasmic reticulum) stress inhibition activity. The term “Toxicity” denotes cytotoxicity. In the ER stress inhibition activity (Efficacy), “−” indicates no activity, “+” indicates weak activity, and “++” indicates strong activity. In addition, “XD7” in Table 1 below represents compound 6. That is, XD7 and compound 6 are the same compound.

HEK293 cells [4] = test: Fluorescence imaging of self-assemblies in living cells (DCVJ); assay type: cell-based; conditions: 100 μM, DCVJ 1.0 μM, 8 h
Protocol: HEK293 cells were incubated with compound 1, 4, 5, or 6 (25 or 100 μM) in the presence of 1.0 μM DCVJ in DMEM (10% FBS). Fluorescence and bright-field images were taken with a CV1000 confocal microscope equipped with a 40× objective lens (Yokogawa Electric Corporation).
The ability of compound 1 and its derivatives, compounds 4 to 6, to form assemblies was also monitored in living cells. […] HEK293 cells were treated with compound 1, 4, 5, or 6 (25 μM or 100 μM) and 1.0 μM of DCVJ for 8 hours. Fluorescence and bright-field images were taken with a CV1000 confocal microscope. HEK293 cells were treated with compound 1, 4, 5, or 6 (25 or 100 μM) and DCVJ (1.0 μM) for 8 hours and observed with a confocal microscope. […] The self-assembling ability of the molecules of compound 6 may be due to its cellular activity at that concentration, even at 25 μM. […] To further support the importance of self-organization formation in cellular activity, dose-response curves for compounds 1 and 6 were determined. The biological activity of the compounds' molecular assembly is expected to be more cooperative than that of the monomer and to show a steeper dose-response curve (Reference Material 18 below). […] Compound 6 is referred to as “selfonamide” below. […] P. A High-Throughput Screen for Aggregation-Based Inhibition in a Large Compound Library. J Med Chem 2007, 50 (10), 2385-2390. https://doi.org/10.1021/jm061317y.

[5] = even at higher concentrations, tunicamycin 5.0 μg/mL 48 h

Compound | Efficacy 5 μM (ER stress inhibition activity) (HEK293 cells [1]) | Efficacy 25 μM (ER stress inhibition activity) (HEK293 cells [1]) | Efficacy 100 μM (ER stress inhibition activity) (HEK293 cells [1]) | further results
NS(=O)(=O)c1ccc(Nc2ccn3c(n2)nc(=O)c2sc4cc(Br)ccc4c23)cc1 [XD12] | − | + | ++ | 
CCCCOc1ccc2c(c1)sc1c(=O)nc3nc(Nc4ccc(S(=O)(=O)NC(=N)N)cc4)ccn3c12 [XD26] |  | + | ++ | 
O=c1nc2nc(Nc3ccccc3)ccn2c2c1sc1cc(F)ccc12 [compound 2] |  |  |  | Ability to rescue cells from tunicamycin-induced ER stress (HEK293 cells [1]; tunicamycin 5.0 μg/mL 48 h): eliminated the ability of the compounds to rescue cells; Self-assembly activity (self-assembling ability) [2]: confirmed to have self-assembly activity
C[C@H](CCC(=O)NCCS(=O)(=O)O)[C@H]1CC[C@H]2[C@@H]3[C@@H](O)C[C@@H]4C[C@H](O)CC[C@]4(C)[C@H]3CC[C@]12C [TUDCA, reference compound] |  |  |  | Rescue from tunicamycin-induced cell death (secondary screen) (HEK293 cells [1]; [5]): little effect
Cc1ccc2c(c1)sc1c(=O)nc3nc(Nc4ccc(S(N)(=O)=O)cc4)ccn3c12 [compound 5] |  |  |  | Ability to rescue cells from tunicamycin-induced ER stress (HEK293 cells [1]; tunicamycin 5.0 μg/mL 48 h): lost activity; Cytotoxicity (HEK293 cells [3]; at 25 μM): no obvious cytotoxicity; Cytotoxicity (HEK293 cells [3]; at 100 μM): slightly reduced cell viability; Size of assemblies/particles in living-cell imaging (HEK293 cells [4]): 5 µm
NS(=O)(=O)c1ccc(Nc2ccn3c(n2)nc(=O)c2sc4cc(F)c(F)cc4c23)cc1 [XD13] | − | ++ | ++ | 
CCCCOc1ccc2c(c1)sc1c(=O)nc3nc(Nc4ccc(S(N)(=O)=O)cc4)ccn3c12 [XD16] | − | − | − | 
NS(=O)(=O)c1ccc(Nc2ccnc(N(C(=O)c3sc4cc(F)ccc4c3Cl)C(=O)c3sc4cc(F)ccc4c3Cl)n2)cc1 [TD-4C8] |  |  |  | Rescue from tunicamycin-induced cell death (secondary screen) (HEK293 cells [1]; compound 50 μM, tunicamycin 5.0 μg/mL 48 h): significantly rescued cells from tunicamycin-induced cell death
N=C(N)NS(=O)(=O)c1ccc(Nc2ccn3c(n2)nc(=O)c2sc4cc(OCc5ccccc5)ccc4c23)cc1 [XD28] |  |  | ++ | 
N=C(N)NS(=O)(=O)c1ccc(Nc2ccn3c(n2)nc(=O)c2sc4cc([N+](=O)[O-])ccc4c23)cc1 [XD20] |  |  | + | 
CCOc1ccc2c(c1)sc1c(=O)nc3nc(Nc4ccc(S(N)(=O)=O)cc4)ccn3c12 [XD14] | − | − | − | 
NS(=O)(=O)c1ccc(Nc2ccn3c(n2)nc(=O)c2sc4cc([N+](=O)[O-])ccc4c23)cc1 [XD9] | − | ++ | + | 
COc1cc2sc3c(=O)nc4nc(Nc5ccc(S(N)(=O)=O)cc5)ccn4c3c2cc1OC [XD11] | − | − | ++ | 
CCCOc1ccc2c(c1)sc1c(=O)nc3nc(Nc4ccc(S(=O)(=O)NC(=N)N)cc4)ccn3c12 [XD25] |  | ++ | + | 
NS(=O)(=O)c1ccc(Nc2ccn3c(n2)nc(=O)c2sc4cc5c(cc4c23)OCO5)cc1 [XD10] | − | − | − | 
NS(=O)(=O)c1ccc(Nc2ccn3c(n2)nc(=O)c2sc4ccccc4c23)cc1 [compound 4] |  |  |  | Cytotoxicity (HEK293 cells [3]; up to 100 μM): no obvious cytotoxicity
CCCCCCOc1ccc2c(c1)sc1c(=O)nc3nc(Nc4ccc(S(N)(=O)=O)cc4)ccn3c12 [XD17] | − | − | + | 
O=C(O)CCCc1ccccc1 [PBA, reference compound] |  |  |  | Rescue from tunicamycin-induced cell death (secondary screen) (HEK293 cells [1]; [5]): little effect; EC50 (HEK293 cells [1]; tunicamycin 5.0 μg/mL 48 h, read-out: EC50 (dose-response curve, Hill equation)): 483 µM
NS(=O)(=O)c1ccc(Nc2ccn3c(n2)nc(=O)c2sc4cc(Cl)ccc4c23)cc1 [XD8] | − | + | ++ | 
CCCOc1ccc2c(c1)sc1c(=O)nc3nc(Nc4ccc(S(N)(=O)=O)cc4)ccn3c12 [XD15] | − | − | − | 
CS(=O)(=O)c1ccc(Nc2ccn3c(n2)nc(=O)c2sc4cc(F)ccc4c23)cc1 [compound 3] |  |  |  | Ability to rescue cells from tunicamycin-induced ER stress (HEK293 cells [1]; tunicamycin 5.0 μg/mL 48 h): eliminated the ability of the compounds to rescue cells; Self-assembly activity (self-assembling ability) [2]: confirmed to have self-assembly activity
COc1ccc2c(c1)sc1c(=O)nc3nc(Nc4ccc(S(=O)(=O)NC(=N)N)cc4)ccn3c12 [XD21] |  | ++ | ++ | 
NS(=O)(=O)c1ccc(Nc2ccn3c(n2)nc(=O)c2sc4cc(OCc5ccccc5)ccc4c23)cc1 [XD18] | − | − | − | 
